Key:
[1] = Randomized, placebo-controlled pilot study of IV 25OHD supplementation in critically ill (ICU) patients; serum vitamin D metabolites and DBP (Example 1); type: in vivo
Method: The study was performed in accordance with the 1964 Declaration of Helsinki and its later amendments. The protocol and consent forms were approved by the institutional review board of the University Hospitals Leuven (ML2462). The study was registered at www.controlled-trials.com (ISRCTN24385496). Patients with an anticipated stay in the intensive care unit (ICU) of more than 10 days were eligible for inclusion in the study. Patients younger than 18 years, those suffering from chronic bone or kidney disease, and those who were treated with glucocorticoids before ICU admission were excluded. Patients were compared with healthy controls matched for age, gender and body mass index, of whom blood was sampled during summer time.
Upon ICU admission, patients were randomly allocated to either a daily IV injection of placebo (NaCl 0.9%) or to an IV loading dose of 200 µg 25OHD, followed by an IV replacement dose of 15 µg 25OHD per day, from ICU admission onward and continued for 10 days. Patients from both groups also received the usual vitamin D supplement, which consisted of a daily intravenous cholecalciferol supplement of +/-200 IU (5 µg, as part of 10 ml of Cernevit® (Clinitec-Baxter, Brussels, Belgium). 25OHD was obtained from Solvay Pharmaceuticals (Brussels, Belgium) and dissolved in ethanol by the hospital pharmacy under laminar flow conditions in glass vials, containing 200 µg/ml per vial for the loading dose and 15 µg/ml per vial for the replacement dose. A purity control was performed on the prepared samples using HPLC. Similarly, placebo vials were also prepared by the hospital pharmacy (1 ml NaCl 0.9% per vial). All vials were blinded by the hospital pharmacy.
The effect of IV 25OHD supplementation on vitamin D status (25OHD, 1,25(OH)2D, 24,25(OH)2D) was studied. Clinical outcome parameters (organ dysfunction (sequential organ failure assessment (SOFA) score, days on mechanical ventilation, need for renal replacement therapy), prolonged (>3 days) antibiotic therapy, ICU length of stay and mortality) were registered as safety endpoints. All patients were followed up and monitored for possible adverse events beyond the intervention period of 10 days until discharge or death. Analysts and investigators were blinded for treatment allocation.
Every day at 06.00 a.m., from ICU admission until ICU discharge or death, undiluted blood samples were taken through an arterial line that had been placed for clinical purposes. Serum and plasma samples were frozen and subsequently stored at -20°C until assay. Concentrations of 25OHD, 1,25(OH)2D, and 24,25(OH)2D were measured in serum.
25OHD was measured by competitive binding assay; 1,25(OH)2D by radioimmunoassay (RIA), and DBP by radial immunodiffusion, as previously reported by Bouillon et al (J Clin Invest 1981 67 589-596). A subset of the original 25OHD measurements were subsequently validated by re-analyses using LC-MS/MS, currently considered the gold standard. To this end, 58 samples from patients (treated with 25OHD or placebo) and controls were selected at random covering the full range of 25OHD serum concentrations (3.7-70.7 ng/ml). Briefly, serum proteins were precipitated using zinc sulphate solution, spiked with d6-25OHD3 as internal standard. After mixing and centrifugation, the supernatant was transferred to the liquid chromatography autosampler. We used a ScieX 5500 QTRAP mass spectrometer connected with a Shimadzu chromatographic system. The method consisted of an online clean-up step using a Strata C8 extraction cartridge. After loading and cleaning, the analytes were eluted by back-flushing. A Kinetex F5 column was used as analytical column. Atmospheric-pressure chemical ionization (APCI) positive mode was used. Mass transitions of 383>211, 295>211 and 389>211 were used for 25OHD3, 25OHD2 and the internal standard, respectively. Within-run and between-run CVs at clinically relevant concentrations varied between 6.3-7.4% and 6.9-8.8% respectively. […]

[2] = Further trial of IV 25OHD with higher replacement dose in critically ill patients (Example 2); type: in vivo; conditions: IV loading dose, then 25 µg 25OHD per day for 10 days
Method: The study design and materials are similar to the one described in Example 1, the difference being that the patients are administered higher bolus and daily replacement doses of 25OHD for at least two days after the bolus administration and preferably during the hospital stay of such patients .
The study is performed in accordance with the 1964 Declaration of Helsinki and its later amendments. Patients with an anticipated stay in the intensive care unit (ICU) of more than 10 days are considered eligible for inclusion in the study. […]
The effect of IV 25OHD supplementation on vitamin D status (25OHD) is studied. […] All patients are followed up and monitored for possible adverse events beyond the intervention period of 10 days until discharge or death. […]
Every day at 06.00 a.m., from ICU admission until ICU discharge or death, undiluted blood samples are taken through an arterial line that is present for clinical purposes. […] Concentrations of 25OHD are measured in serum.
StatView 5.0.1 (SAS Institute Inc., Cary, NC) and JMP13 (SAS) is used for the statistical analyses. […] Variables with a normal distribution are analyzed with Student's t-test, variables with a non-normal distribution with Mann-Whitney U, and proportions with the chi-square test. […]

[3] = normal subjects; cited from earlier work
[4] = cited from earlier work
[5] = daily administration of 15 µg 25(OH)D (Ingels et al. 2010)

Row | SMILES | 25OHD serum concentration as compared with placebo ([1]; 10-day period, IV replacement dose 15 µg 25OHD per day) | concentrations of 1,25(OH)2D ([1]; IV 200 µg loading dose, then 15 µg/day for 10 days) | increase in serum 25OHD after bolus ([1]; IV loading dose of 200 µg 25OHD) | increase of 25OHD levels ([1]; daily supplement of 15 µg of 25OHD) | 25OHD serum concentrations ([1]; following the intravenous loading dose of 200 µg 25OHD, 20 ng/ml target) | increase of 25OHD levels in the subgroup receiving the active treatment ([1]; from 9.2 ng/ml baseline) | catabolism of 25OHD in ICU patients versus normal subjects of the same age ([1]; human, in vivo) | Vd ([1]; human, in vivo, iv) | safety endpoints (clinical outcome parameters) [2] | increase of serum 25OHD per daily dose of 1 ug of 25OHD [3] | level of 1,25(OH)2D3 [4, 5] | serum levels of 25OHD [4, 5] | outcome of critically ill patients ([4]; oral, high dose, except subgroup with baseline severe vitamin D deficiency (lower hospital mortality))
1 | C=C1CC[C@H](O)C/C1=C/C=C1\CCC[C@]2(C)[C@@H]([C@H](C)CCCC(C)(C)O)CC[C@@H]12 [25OHD, 25-hydroxyvitamin D] | remained elevated throughout the 10-day period | only transiently increased | 11 ng/mL | about 8 ng/ml | instantly rose but did not reach the 20 ng/ml target | 6.8 ng/mL | at least 3 fold | ~18 L | positive effects | 1.2 ng/mL | only a transient increase | increased the serum levels of 25OHD | 
2 | C=C1CC[C@H](O)C/C1=C/C=C1\CCC[C@]2(C)[C@@H]([C@H](C)CCCC(C)C)CC[C@@H]12 [vitamin D3] |  |  |  |  |  |  |  |  |  |  |  |  | did not affect outcome
